Reference: PubChem BioAssay AID2060896 (Molecular Pharmacology Branch, DTP, NCI, 2025)
pIC50: −log10 of the molar value.

Test system: 941728-121-R-J1-PDC complex spheroid viability
Assay: Anticancer human tumor 941728-121-R-J1-PDC patient-derived lung adenocarcinoma cell line growth inhibition [RAS]
Conditions: for pIC50: curve of first compound; for viability, T/C: stronger effect = lower value
How it was run: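 Multi-cell-type spheroids: tumor cells plus HUVEC endothelial cells and mesenchymal stem cells. RAS-pathway inhibitors were combined with targeted agents, each dosed in half-log steps down from clinical Cmax, or from 10 microM when Cmax was unknown.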

[1] = second compound 0.000949 µM, first compound 0.0316 µM
[2] = second compound 0.000949 µM, first compound 0.1 µM
[3] = second compound 0.000949 µM, first compound 0.316 µM
[4] = second compound 0.000949 µM, first compound 1 µM
[5] = second compound 0.003 µM, first compound 0.0316 µM
[6] = second compound 0.003 µM, first compound 0.1 µM
[7] = second compound 0.003 µM, first compound 0.316 µM
[8] = second compound 0.003 µM, first compound 1 µM
[9] = second compound 0.00949 µM, first compound 0.0316 µM
[10] = second compound 0.00949 µM, first compound 0.1 µM
[11] = second compound 0.00949 µM, first compound 0.316 µM
[12] = second compound 0.00949 µM, first compound 1 µM
[13] = second compound 0.03 µM, first compound 0.0316 µM
[14] = second compound 0.03 µM, first compound 0.1 µM
[15] = second compound 0.03 µM, first compound 0.316 µM
[16] = second compound 0.03 µM, first compound 1 µM
[17] = second compound 0.0949 µM, first compound 0.0316 µM
[18] = second compound 0.0949 µM, first compound 0.1 µM
[19] = second compound 0.0949 µM, first compound 0.316 µM
[20] = second compound 0.0949 µM, first compound 1 µM
[21] = second compound 0.3 µM, first compound 0.0316 µM
[22] = second compound 0.3 µM, first compound 0.1 µM
[23] = second compound 0.3 µM, first compound 0.316 µM
[24] = second compound 0.3 µM, first compound 1 µM
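Note: spheroids exposed to compounds for 7 days before readout.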
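Throughout, for viability, T/C: 100% = DMSO vehicle control viability.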

**Q.** How did the pIC50 (second compound 0.000949 µM) turn out when `CC(Nc1ccc2c(c1)OCCn1cc(N3C(=O)OCC3C(F)F)nc1-2)C(N)=O` (centres undefined) + CCn1c(-c2cc(N3CCN(C)CC3)cnc2C(C)OC)c2c3cc(ccc31)-c1csc(n1)CC(NC(=O)C1CC1C)C(=O)N1CCCC(N1)C(=O)OCC(C)(C)C2 was run?
**A.** > 7.50

**Q.** What about the pIC50 (second compound 0.003 µM) of the same molecule?
**A.** > 7.50

**Q.** And the pIC50 (second compound 0.00949 µM)?
**A.** > 7.50

**Q.** And the pIC50 (second compound 0.03 µM)?
**A.** > 7.50

**Q.** And the pIC50 (second compound 0.0949 µM)?
**A.** > 7.50

**Q.** And the pIC50 (second compound 0.3 µM)?
**A.** > 7.50

**Q.** What about the viability, T/C [1] of the same molecule?
**A.** 26%

**Q.** And the viability, T/C [2]?
**A.** 23.3%

**Q.** What about the viability, T/C [3] of the same molecule?
**A.** 18.9%

**Q.** What about the viability, T/C [4] of the same molecule?
**A.** 21.3%

**Q.** And the viability, T/C (second compound 0.000949 µM, first compound 3.16 µM)?
**A.** 20.5%

**Q.** And the viability, T/C (second compound 0.000949 µM, first compound 10 µM)?
**A.** 12.1%

**Q.** What about the viability, T/C [5] of the same molecule?
**A.** 19.4%

**Q.** What about the viability, T/C [6] of the same molecule?
**A.** 15.9%

**Q.** What about the viability, T/C [7] of the same molecule?
**A.** 13.4%

**Q.** What about the viability, T/C [8] of the same molecule?
**A.** 14.2%

**Q.** And the viability, T/C (second compound 0.003 µM, first compound 3.16 µM)?
**A.** 11.7%

**Q.** And the viability, T/C (second compound 0.003 µM, first compound 10 µM)?
**A.** 7.42%

**Q.** And the viability, T/C [9]?
**A.** 14.2%

**Q.** And the viability, T/C [10]?
**A.** 10.3%

**Q.** And the viability, T/C [11]?
**A.** 11.2%

**Q.** What about the viability, T/C [12] of the same molecule?
**A.** 9.14%

**Q.** What about the viability, T/C (second compound 0.00949 µM, first compound 3.16 µM) of the same molecule?
**A.** 7.89%

**Q.** What about the viability, T/C (second compound 0.00949 µM, first compound 10 µM) of the same molecule?
**A.** 5.97%

**Q.** And the viability, T/C [13]?
**A.** 12.3%

**Q.** And the viability, T/C [14]?
**A.** 10.6%

**Q.** And the viability, T/C [15]?
**A.** 10.1%

**Q.** And the viability, T/C [16]?
**A.** 8.95%

**Q.** And the viability, T/C (second compound 0.03 µM, first compound 3.16 µM)?
**A.** 11.8%

**Q.** What about the viability, T/C (second compound 0.03 µM, first compound 10 µM) of the same molecule?
**A.** 6.96%

**Q.** And the viability, T/C [17]?
**A.** 11.5%

**Q.** And the viability, T/C [18]?
**A.** 8.85%

**Q.** And the viability, T/C [19]?
**A.** 9.23%

**Q.** And the viability, T/C [20]?
**A.** 8.74%

**Q.** And the viability, T/C (second compound 0.0949 µM, first compound 3.16 µM)?
**A.** 7.5%

**Q.** And the viability, T/C (second compound 0.0949 µM, first compound 10 µM)?
**A.** 6.53%

**Q.** And the viability, T/C [21]?
**A.** 11.4%

**Q.** And the viability, T/C [22]?
**A.** 9.97%

**Q.** And the viability, T/C [23]?
**A.** 9.41%

**Q.** And the viability, T/C [24]?
**A.** 6.86%

**Q.** What about the viability, T/C (second compound 0.3 µM, first compound 3.16 µM) of the same molecule?
**A.** 6.29%

**Q.** And the viability, T/C (second compound 0.3 µM, first compound 10 µM)?
**A.** 6.96%

**Q.** With `O=C(c1ccc(F)c(F)c1Nc1ccc(I)cc1F)N1CC(O)([C@@H]2CCCCN2)C1` + CCn1c(-c2cc(N3CCN(C)CC3)cnc2C(C)OC)c2c3cc(ccc31)-c1csc(n1)CC(NC(=O)C1CC1C)C(=O)N1CCCC(N1)C(=O)OCC(C)(C)C2 as the molecule, how does the pIC50 (second compound 0.000949 µM) read?
**A.** > 8.50

**Q.** What about the pIC50 (second compound 0.003 µM) of the same molecule?
**A.** > 8.50

**Q.** And the pIC50 (second compound 0.00949 µM)?
**A.** > 8.50

**Q.** What about the pIC50 (second compound 0.03 µM) of the same molecule?
**A.** > 8.50

**Q.** What about the pIC50 (second compound 0.0949 µM) of the same molecule?
**A.** > 8.50

**Q.** What about the pIC50 (second compound 0.3 µM) of the same molecule?
**A.** > 8.50

**Q.** And the viability, T/C (second compound 0.000949 µM, first compound 0.00316 µM)?
**A.** 26%

**Q.** What about the viability, T/C (second compound 0.000949 µM, first compound 0.01 µM) of the same molecule?
**A.** 26.8%

**Q.** What about the viability, T/C [1] of the same molecule?
**A.** 15.6%

**Q.** What about the viability, T/C [2] of the same molecule?
**A.** 19.6%

**Q.** What about the viability, T/C [3] of the same molecule?
**A.** 16.4%

**Q.** What about the viability, T/C [4] of the same molecule?
**A.** 8.5%

**Q.** And the viability, T/C (second compound 0.003 µM, first compound 0.00316 µM)?
**A.** 21.8%

**Q.** And the viability, T/C (second compound 0.003 µM, first compound 0.01 µM)?
**A.** 17.2%

**Q.** And the viability, T/C [5]?
**A.** 15.4%

**Q.** And the viability, T/C [6]?
**A.** 14.5%

**Q.** What about the viability, T/C [7] of the same molecule?
**A.** 12.3%

**Q.** What about the viability, T/C [8] of the same molecule?
**A.** 13.5%

**Q.** What about the viability, T/C (second compound 0.00949 µM, first compound 0.00316 µM) of the same molecule?
**A.** 15.1%

**Q.** What about the viability, T/C (second compound 0.00949 µM, first compound 0.01 µM) of the same molecule?
**A.** 11%

**Q.** What about the viability, T/C [9] of the same molecule?
**A.** 12.7%

**Q.** What about the viability, T/C [10] of the same molecule?
**A.** 12.7%

**Q.** And the viability, T/C [11]?
**A.** 12%

**Q.** What about the viability, T/C [12] of the same molecule?
**A.** 8.59%

**Q.** What about the viability, T/C (second compound 0.03 µM, first compound 0.00316 µM) of the same molecule?
**A.** 13.4%

**Q.** And the viability, T/C (second compound 0.03 µM, first compound 0.01 µM)?
**A.** 12.9%

**Q.** What about the viability, T/C [13] of the same molecule?
**A.** 12.2%

**Q.** And the viability, T/C [14]?
**A.** 12.7%

**Q.** And the viability, T/C [15]?
**A.** 8.4%

**Q.** What about the viability, T/C [16] of the same molecule?
**A.** 10.3%

**Q.** And the viability, T/C (second compound 0.0949 µM, first compound 0.00316 µM)?
**A.** 12.6%

**Q.** And the viability, T/C (second compound 0.0949 µM, first compound 0.01 µM)?
**A.** 12.5%

**Q.** What about the viability, T/C [17] of the same molecule?
**A.** 12.3%

**Q.** And the viability, T/C [18]?
**A.** 12.4%

**Q.** What about the viability, T/C [19] of the same molecule?
**A.** 11%

**Q.** And the viability, T/C [20]?
**A.** 10.8%

**Q.** And the viability, T/C (second compound 0.3 µM, first compound 0.00316 µM)?
**A.** 12%

**Q.** And the viability, T/C (second compound 0.3 µM, first compound 0.01 µM)?
**A.** 11.5%

**Q.** And the viability, T/C [21]?
**A.** 12.7%

**Q.** What about the viability, T/C [22] of the same molecule?
**A.** 11.5%

**Q.** And the viability, T/C [23]?
**A.** 8.36%

**Q.** And the viability, T/C [24]?
**A.** 9.92%
